In patent publication US8884013B2, “Polymorphs of Dasatinib, preparation methods and pharmaceutical compositions thereof” (Nan Jing Cavendish Bio-Engineering Technology Co., Ltd., priority 2010, dated 2014):

Assay: Comparative test on stability: destruction experiment, related substances by HPLC
Assay type: physicochemical
Procedure: The methods of destruction experiment of the Polymorph I and II of this invention (hereinafter referred to as ‘Polymorph I’ and ‘Polymorph II’) contrasting with the Polymorph A of Dasatinib prepared by the method in CN200580011916.6 (hereinafter referred to as ‘916.6 Polymorph A’) and results of stability are followed:
Oxidation destruction: 50 mg of sample weighted accurately was added into measuring flask of 100 mL, and 10 mL 30% H2O2 was added. After standing at room temperature for 2 hour, the mixture was diluted with mobile phase to scale and shook to be homogeneous, and determined by HPLC.
(§1) Acid destruction: 50 mg of sample weighted accurately was added into measuring flask of 100 mL, and 10 mL 1 mol/L HCl solution was added. After standing at 40° C. for 1 hour, an equal amount of 1 mol/L NaOH solution was added for neutralization. Then the mixture was diluted with mobile phase to scale and shook to be homogeneous, and determined by HPLC.
as §1, with “Alkali” for “Acid”, “NaOH” for “HCl”, “HCl” for “NaOH”
Illumination destruction: 50 mg of sample weighted accurately was added into measuring flask of 100 mL, dissolved and diluted with mobile phase to be the solution containing 0.5 mg Dasatinib per milliliter. After standing under illumination of 4000 lx for 6 hour, the mixture was determined by HPLC.
High temperature destruction: 50 mg of sample weighted accurately was added into measuring flask of 100 mL, dissolved and diluted with mobile phase to be the solution containing 0.5 mg Dasatinib per milliliter. After standing in homothermal water bath of 60° C. for 4 hour, the mixture was cooled and then determined by HPLC.
Related Substances Determination
HPLC conditions and system applicability: octadecylsilane bonded silica as the filler; 0.05 mol/L of potassium dihydrogen phosphate (adjusted to pH 2.5 by phosphoric acid, 0.2% triethylamine)-methanol (45:55) as the mobile phase; detection wavelength was 230 nm; the number of theoretical plates should be not less than 2000, calculated according to the peak of Dasatinib. The resolution of the peak of Dasatinib from the peaks of adjacent impurities should meet requirements.
Determination method: sample was dissolved in mobile phase to be the solution containing 0.5 mg per milliliter. 20 μL of such solution was injected into liquid chromatograph, and chromatogram was recorded until the sixfold retention time of major component peak. If there were impurities peaks in the chromatogram of sample solution, total impurities and any single impurity were calculated by normalization method on the basis of peak area.

## Cc1nc(Nc2ncc(C(=O)Nc3c(C)cccc3Cl)s2)cc(N2CCN(CCO)CC2)n1 [916.6 Polymorph A, N-(2-chloro-6-methylphenyl)-2-[[6-[4-(2-hydroxyethyl)-1-piperazinyl]-2-methyl-4-pyrimidyl]amino]-5-thiazolformamide, reference compound]
  Stability by comparison with Polymorph I: worse performance in stability
1 mol/L acid destruction
  Impurity tR3.580: 0.01%
  Impurity tR4.106: 0.02%
  Impurity tR5.001: 0.02%
1 mol/L acid destruction (HCl, 40° C., 1 hour)
  Total impurities: 0.06%
1 mol/L alkali destruction
  Impurity tR4.107: 0.01%
  Impurity tR5.007: 0.03%
  Impurity tR5.351: 0.03%
  Impurity tR8.943: 0.01%
1 mol/L alkali destruction (NaOH, 40° C., 1 hour)
  Total impurities: 0.11%
Before destruction
  Impurity tR4.135: 0.02%
  Impurity tR5.092: 0.02%
  Impurity tR5.523: 0.03%
  Total impurities: 0.07%
High temperature destruction
  Impurity tR4.118: 0.02%
  Impurity tR5.081: 0.03%
  Impurity tR5.502: 0.03%
High temperature destruction (60° C. water bath, 4 hour, in solution)
  Total impurities: 0.08%
Illumination destruction
  Impurity tR2.456: 0.30%
  Impurity tR3.732: 0.14%
  Impurity tR4.589: 0.11%
  Impurity tR5.088: 0.06%
  Impurity tR5.503: 0.19%
  Impurity tR10.095: 0.82%
Illumination destruction (4000 lx, 6 hour, in solution)
  Total impurities: 1.89%
Oxidation destruction
  Impurity tR4.123: 0.01%
  Impurity tR4.584: 0.02%
  Impurity tR5.089: 0.02%
  Impurity tR5.504: 0.05%
  Impurity tR9.450: 2.30%
Oxidation destruction (30% H2O2, room temperature, 2 hour)
  Total impurities: 2.41%
